Reference: article PMC11324666, “Two novel in vitro assays to screen chemicals for their capacity to inhibit thyroid hormone transmembrane transporter proteins OATP1C1 and OAT4” (Archives of Toxicology, 2024)
Read-outs that look alike come from different tables or passages of the source.

Columns and labels:
OATP1C1 [1] = target: T1, OATP1C1 (Homo sapiens, UniProt Q9NYB5); assay: CHO-K1 OATP1C1 TH uptake assay with 125I-T4 tracer; assay type: cell-based; conditions: for 125I-T4 uptake compared to the vehicle control (range finding): single concentration 10 or 100 µM, below 80% = positive hit
T1 construct: host or cells: CHO-K1
T1 sequence (Q9NYB5 1-712): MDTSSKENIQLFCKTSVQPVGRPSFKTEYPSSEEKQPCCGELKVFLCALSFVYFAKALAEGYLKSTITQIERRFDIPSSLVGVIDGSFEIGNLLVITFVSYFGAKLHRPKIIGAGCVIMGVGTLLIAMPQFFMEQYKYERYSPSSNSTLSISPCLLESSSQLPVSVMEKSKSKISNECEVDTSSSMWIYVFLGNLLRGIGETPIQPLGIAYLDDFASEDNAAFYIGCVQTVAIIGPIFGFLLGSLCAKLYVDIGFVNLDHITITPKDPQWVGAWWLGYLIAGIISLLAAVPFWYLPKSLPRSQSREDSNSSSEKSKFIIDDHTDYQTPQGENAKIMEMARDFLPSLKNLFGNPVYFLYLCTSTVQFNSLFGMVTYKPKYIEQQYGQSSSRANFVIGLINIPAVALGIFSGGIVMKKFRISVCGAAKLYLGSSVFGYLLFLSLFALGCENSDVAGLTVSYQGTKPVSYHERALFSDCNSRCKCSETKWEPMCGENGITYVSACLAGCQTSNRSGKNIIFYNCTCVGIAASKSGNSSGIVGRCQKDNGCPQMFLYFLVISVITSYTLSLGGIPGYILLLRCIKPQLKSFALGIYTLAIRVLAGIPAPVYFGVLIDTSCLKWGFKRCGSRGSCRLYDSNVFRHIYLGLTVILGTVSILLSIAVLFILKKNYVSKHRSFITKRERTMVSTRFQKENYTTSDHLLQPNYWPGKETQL
Method: MDCK-OAT4 and MDCK-DEST cells were cultured in DMEM:F12 (L-glutamine, 15 mM HEPES) (Gibco) supplemented with (100 µg/mL penicillin + 100 µg/mL streptomycin), 10% fetal calf serum (Gibco) and 2 µg/mL blasticidin (Sigma). CHO-K1 OATP1C1 or WT cells were cultured in F12 nutrient mix (Gibco) supplemented with (100 µg/mL penicillin + 100 µg/mL streptomycin), 10% fetal calf serum (Gibco) and […] G418 (Sigma). All cell cultures were incubated at 37 °C with 5% CO2 saturation until 80% confluency. MDCK-OAT4 and MDCK-DEST cells were seeded in 96 wells plate at a density of 4 × 10^5 cells in 100 µL medium per well and incubated for 24 h before the start of the MDCK-OAT4 TH uptake assay. CHO-K1 OATP1C1 and WT cells were seeded in 96 wells plate at a density of 3 × 10^5 cells in 100 µL medium per well 72 h before the CHO-K1 OATP1C1 TH uptake assay. Medium from CHO-K1 OATP1C1 or WT assay plates was changed to serum-free F12 medium containing 5 mM sodium-butyrate 24 h before start of the CHO-K1 OATP1C1 TH uptake assay to increase transfected expression of SV-40 promotor plasmids.
Subsequently 10 µL of a tenfold stock of test compound in uptake buffer (solvent concentration 1% v/v) was added to each well. […] Cells were exposed at 37 °C for 20 min (MDCK-OAT4) or 30 min (CHO-K1 OATP1C1), unless stated differently. After exposure, cells were immediately washed with ice-cold PBS supplemented with 0.1% bovine serum albumin (BSA). Subsequently, cells were lysed in 50 µL of 0.1 M NaOH under continuous shaking at room temperature. After 20 min, cell lysates were manually transferred into separate 5 mL polypropylene tubes. One tube was also prepared with 10 µL of the T4 tracer solution. Radioactivity was measured in a Wizard^2 gamma counter (Perkin Elmer).
For the CHO-K1 OATP1C1 TH uptake assay total of 29 chemicals (Table 1) were selected for the EDC screening based on available literature data. […] The same chemicals were selected for the MDCK-OAT4 TH uptake assay, with the exception of BPF, VRP and TCS. […] The THTMT TH uptake assay was then performed as described earlier. […] A concentration of 100 µM ICG was used as a reference chemical for OATP1C1 and 100 µM LESI for OAT4. At least three independent experiments were performed for each chemical.
Raw values were normalized to the total amount of radioactivity in the T4 tracer solution. These values were expressed as a percentage of total radioactivity added (or uptake percentage) and used for all further data analysis. Statistically significant differences between the T4 uptake of transfected and wild type cells, in the presence or absence of inhibitor, were determined by two-way ANOVA (α = 5%, two-sided). […] In brief, uptake values were normalized to the median response of the vehicle and positive controls for each plate. […] Statistical analysis were performed using GraphPad Prism version 8 for Windows (GraphPad Software, San Diego, California USA) and SAS 9.3 (SAS Institute, Cary NC).

MDCK-OAT4 cells = assay: CellTiter-Glo luminescent cell viability assay in MDCK-OAT4 cells; conditions: for Cytotoxicity IC10: concentration that inhibits cell viability by 10%, MDCK-OAT4 cells, 20 min exposure
Method: Cell viability was assessed through the quantitation of ATP present in cells using the commercially available CellTiter-Glo® luminescent cell viability assay and performed according to the manufacturer’s instruction (Promega, Leiden, the Netherlands). Briefly, cells were seeded as described earlier in opaque-walled clear-bottom 96 well plates. On the day of the experiment, each well was washed with 200 µL phosphate buffered saline (PBS) and exposed to 80 µL of uptake buffer, 10 µL of a tenfold stock of test compound solved in uptake buffer or control and 10 µL of T4 (final concentration 10 nM). 0.1% DMSO was used as a solvent control, while 10% DMSO was used as a positive control. After exposure for the indicated times similar to THTMT TH uptake assay, cells were immediately washed with ice-cold PBS + 0.1%BSA and exposed to 100 µL of the CellTiter-Glo® Reagent. Plates were then shaken on an orbital shaker for 2 min and left to incubate at room temperature for 10 min. Luminescence was measured on a BioTek Cytation 5 microplate reader. […] Each individual experiment was repeated at least twice and contained three technical replicates of each control and concentration tested.
Figure S2. […] Blue dots indicate the plate medians from three or four independent experiments, all control and chemical concentrations were tested in triplicates per plate. The black line indicates the best-fit concentrations response curve, the dotted line the corresponding 95% confidence interval.

oatp1c1 [2] = test system: oatp1c1; design: method as in Tohyama et al. (2004); conditions: ref Tohyama et al. (2004); cited from earlier work
oatp1c1 [3] = test system: oatp1c1; design: method as in Westholm et al. (2009); conditions: T4 1 nM; ref Westholm et al. (2009); read-out: IC50 of T4 transmembrane transport inhibition; cited from earlier work
[4] = concentration that inhibits 125I-T4 uptake by 20%, 10 nM T4, 30 min, brackets = 95% CI

## O=c1c(O)c(-c2ccc(O)c(O)c2)oc2cc(O)cc(O)c12 [Quercetin]
OATP1C1 [1]; [4]
  T4 uptake inhibition BMC20 (M), [CI]: 3.94E−08 [4.41E−09; 3.51E−07] M
MDCK-OAT4 cells
  Cytotoxicity IC10: > 100 µM

## CC(C)(c1cc(Br)c(O)c(Br)c1)c1cc(Br)c(O)c(Br)c1 [Tetrabromobisphenol A, Tetrabromobisphenol-A]
OATP1C1 [1]
  BMC20 (20% reduction in T4 uptake): 0.0020 µM
OATP1C1 [1]; [4]
  T4 uptake inhibition BMC20 (M), [CI]: 2.03E−09 [1.28E−09; 3.22E−09] M
OATP1C1 [1]; 10 nM T4, 30 min
  125I-T4 uptake compared to the vehicle control (range finding): below 80%
MDCK-OAT4 cells
  Cytotoxicity IC10: > 10 µM

## O=C(O)C(F)(F)C(F)(F)C(F)(F)C(F)(F)C(F)(F)C(F)(F)C(F)(F)F [Perfluorooctanoic acid]
OATP1C1 [1]; [4]
  T4 uptake inhibition BMC20 (M), [CI]: 2.94E−06 [1.04E−06; 8.36E−06] M
MDCK-OAT4 cells
  Cytotoxicity IC10: > 100 µM

## CCCN(CCC)S(=O)(=O)c1ccc(C(=O)O)cc1 [Probenecid, reference compound]
OATP1C1 [1]; [4]
  T4 uptake inhibition BMC20 (M), [CI]: 6.66E−07 [1.24E−07; 3.57E−06] M
oatp1c1 [2]
  Ki: 293 µM

## Oc1ccc(C(c2ccc(O)cc2)(C(F)(F)F)C(F)(F)F)cc1 [Bisphenol AF, Bisphenol-AF]
OATP1C1 [1]; [4]
  T4 uptake inhibition BMC20 (M), [CI]: 3.52E−06 [2.03E−06; 6.11E−06] M
MDCK-OAT4 cells
  cytotoxic effects: cytotoxic

## O=S(=O)([O-])c1cc(S(=O)(=O)O)ccc1C1=c2cc3c4c(c2Oc2c1cc1c5c2CCCN5CCC1)CCC[N+]=4CCC3 [Sulforhodamine 101, reference compound]
OATP1C1 [1]; [4]
  T4 uptake inhibition BMC20 (M), [CI]: 2.86E−06 [1.29E−06; 6.34E−06] M
OATP1C1 [1]; 10 nM T4, 30 min
  125I-T4 uptake compared to the vehicle control (range finding): below 80%

## O=C1OC(c2ccc(O)c(S(=O)(=O)O)c2)(c2ccc(O)c(S(=O)(=O)O)c2)c2c(Br)c(Br)c(Br)c(Br)c21 [Bromosulfophthalein, reference compound]
OATP1C1 [1]; [4]
  T4 uptake inhibition BMC20 (M), [CI]: 8.72E−07 [5.70E−07; 1.33E−06] M
OATP1C1 [1]; 10 nM T4, 30 min
  125I-T4 uptake compared to the vehicle control (range finding): below 80%
MDCK-OAT4 cells
  Cytotoxicity IC10: > 100 µM

## CO[C@H]1/C=C/O[C@@]2(C)Oc3c(C)c(O)c4c(O)c(c(/C=N/N5CCN(C)CC5)c(O)c4c3C2=O)NC(=O)/C(C)=C\C=C\[C@H](C)[C@H](O)[C@@H](C)[C@@H](O)[C@@H](C)[C@H](OC(C)=O)[C@@H]1C [Rifampicin, reference compound]
OATP1C1 [1]; [4]
  T4 uptake inhibition BMC20 (M), [CI]: 4.06E−05 [2.58E−05; 6.38E−05] M
MDCK-OAT4 cells
  Cytotoxicity IC10: > 100 µM

## Oc1c(Cl)c(Cl)c(Cl)c(Cl)c1Cl [Pentachlorophenol]
OATP1C1 [1]
  T4 uptake inhibition BMC20 (M), [CI]: 8.81E−08 [5.80E−08; 1.34E−07] M
MDCK-OAT4 cells; at concentrations of the uptake assay, Figure S2
  cytotoxic effects: cytotoxic
MDCK-OAT4 cells
  Cytotoxicity IC10: 1.14 µM

## O=S(=O)(O)C(F)(F)C(F)(F)C(F)(F)C(F)(F)C(F)(F)C(F)(F)C(F)(F)C(F)(F)F [Perfluorooctanesulfonic acid]
OATP1C1 [1]; [4]
  T4 uptake inhibition BMC20 (M), [CI]: 4.03E−07 [2.32E−07; 7.00E−07] M
OATP1C1 [1]; 10 nM T4, 30 min
  125I-T4 uptake compared to the vehicle control (range finding): below 80%
MDCK-OAT4 cells
  Cytotoxicity IC10: > 100 µM

## Oc1ccc(Cc2ccc(O)cc2)cc1 [Bisphenol F, Bisphenol-F]
OATP1C1 [1]; [4]
  T4 uptake inhibition BMC20 (M), [CI]: 4.49E−05 [2.80E−05; 7.20E−05] M
OATP1C1 [1]; 10 nM T4, 30 min
  125I-T4 uptake compared to the vehicle control (range finding): below 80%

## COc1cc([C@@H]2Oc3c(O)cc([C@H]4Oc5cc(O)cc(O)c5C(=O)[C@@H]4O)cc3[C@H]2CO)ccc1O [Silychristin, reference compound]
OATP1C1 [1]; [4]
  T4 uptake inhibition BMC20 (M), [CI]: 3.78E−06 [1.54E−06; 9.27E−06] M
OATP1C1 [1]; 10 nM T4, 30 min
  125I-T4 uptake compared to the vehicle control (range finding): below 80%

## CC1(C)C(/C=C/C=C/C=C/C=C2\N(CCCCS(=O)(=O)O)c3ccc4ccccc4c3C2(C)C)=[N+](CCCCS(=O)(=O)[O-])c2ccc3ccccc3c21 [Indocyanine green, reference compound]
OATP1C1 [1]; 100 µM, t = 40 min, versus CHO-K1 wildtype cells
  T4 uptake on co-exposure to known inhibitor: decreased back to control
OATP1C1 [1]; [4]
  T4 uptake inhibition BMC20 (M), [CI]: 3.60E−07 [2.17E−07; 5.97E−07] M
MDCK-OAT4 cells
  Cytotoxicity IC10: > 10 µM
oatp1c1 [3]
  IC50: 0.1 µM
